These results are taken from US20250163057A1, “DCN-1 MODULATING COMPOUNDS AND METHODS OF USE THEREOF” (Cellarity, Inc., priority 2023, published 2025).

Like-named read-outs stand apart in the source and are kept apart here. Some results are limits rather than exact numbers.

Test [1] relates to fetal hemoglobin gene HBG1. In words: HBG1 Nanostring Assay in CD34+ HSPC erythroid differentiation culture. It counts as cell-based, human. To be noted: for Nanostring Ymax obs (%): relative to a control compound (C1); for EC50: Homo sapiens, 240 h, HBG1 induction, Day10 of erythroid differentiation. The protocol:
A Nanostring Assay was performed to evaluate the ability of the compounds to induce expression of the fetal hemoglobin gene HBG1 in cells. The data are shown as EC50, with stronger inducers having a lower EC50 value and higher YMax.
Forty eight hours later (day −2), the cells were passaged at a density of 200,000 cells/ml (100 ul/well in 96well culture plate) in complete expantion media. The cells were plated at 200,000 cells/ml on day 0 and day 3, 400,000 cells/ml on day 5 in phase 1 erythroid differentiation containing StemSpan with 2.5 U/mL of EPO (R&D systems, 287-TC-500), 0.5 mg/mL of Holo-Transferrin (Sigma, T0665-500MG), 1× Glutamine (Gluta-Max) (Gibco, 35050-061), 5 μL/mL Lipid Mixture (Sigma, L0288-100ML), 50 ng/mL SCF (R&D Systems, 255-SV-050), 10 ng/mL IL-3 (R&D Systems, 203-IL010) and 10 ng/mL Insulin (Sigma, I9278-5ML) all 200 μl per well in 96 well culture plate. Cells were then passaged at 500,000 cells/ml and 200 μl per well on day 7 in phase 2 Erythroid differentiation (Phase 1 erythroid differentiation removing IL-3) until collection day (Day10). The culture conditions were used for both control DMSO as well as experimental treatments.
For all cell pasagings, cells were centrifuged at 300 g for 8 minutes at room temperature and cell number were normalized by MANTIS and Integra VIAFLO 384. All the compounds are diluted in DMSO and added to complete media by Formulatrix FAST and mixed starting from day −2. Cells were counted by Luna cell counter with AOPI Staining Solution (Nexcelom Bioscience, CS2-0106-25 mL) on day-2. Cells were counted by BD FACSCelesta Flow Cytometer with CountBright™ Plus Absolute Counting Beads (Thermal Fisher Scientific, C36995) and SYTOX AADvanced™ Ready Flow™ Reagent (Invitrogen, R37173) for other passages. Cells were cultured at 37° C. and 5% CO2. DMSO concentration was kept at 0.1% to minimize any effects to the cells by the vehicle. […] Compound plates were kept at room temperature to protect from light to avoid multiple freeze and thaw cycle.
On the collection day (Day10), 100K cells were collected and stored at −80° C. For direct hybridization for Nanostring, 100K cell pellet was lyzed in 25 μL of RLT (QIAGEN, 79216) with 1×β-Mercaptoethanol (Gibco, 21985-023) and shaked at 300-500 RPM for 5 minutes at room temperature. Cell lysate was stored in −80° C. after lysis.
All hybridizations were done in a total volume of 15 μL (3 μL of RNA lysate added to master mix of 12 μL probe A/B, capture probe/reporter probes, proteinase K and attenuation oligos suspended in hybridization buffer). Samples were hybridized at 67° C. for 22 hr. Following hybridization, the tripartide complexes were purified, immobilized by nCounter Prep Station and imaged by Digital Analyzer (nCounter MAX/FLEX Analysis System), to generate digital counts of barcodes corresponding to each target in the multiplexed reaction. Labeled barcodes obtained from unamplified extracts were counted at 555 images or field of view (FOV). The barcode counts for each sample were recorded in Reporter Code Count (RCC) files that are imported into nSolver analysis software (provided with CodeSet by NS) for quality control evaluation.
The quality control (QC) metric included limit of detection QC by checking for wells with less than 100 total counts for positive controls.
Hybridization signals were normalized against the ERCC positive controls and CodeSet Content (housekeeping gene). Briefly, this involved first calculating a sample-specific scaling factor by calculating arithmetic mean of geomeans of all ERCC positive controls with counts more than zero in all samples. Then this arithmetic mean was divided by the geometric mean of each lane to generate a lane-specific normalization factor. All negative controls and target-specific signal values were then normalized by multiplying counts values with their sample-specific scaling factor. The acceptable range for scaling factors is 0.3-3.0. […]

Test [2] deals with Cullin-3 (CUL3) neddylation. In words: AlphaLISA assay for Cullin-3 (CUL3) neddylation in TF 1 cells. It counts as cell-based. The following applies: Homo sapiens, TF-1, 3 h, 3 hours treatment. The gist of the method: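 Neddylated CUL3 was quantified by AlphaLISA in lysates of TF 1 cells exposed for 3 h to test compound in IMDM without supplements. Percent inhibition set between vehicle and 1 μM DI-1548 positive control; IC50 derived by Hill-equation fitting of dose-response curves.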
A general note: Alpha assays give light when donor and acceptor beads are brought close together.

In test [3] the target is DCN1 (DCUND1) protein PONY domain (Homo sapiens (Human), UniProt Q96GG9). In words: TR-FRET assay, DCN1 binding with FAM-labeled probe. The method, boiled down: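 Binding was read as the TR-FRET ratio between a FAM-tagged inhibitor probe and Tb-labeled biotinylated E. coli-expressed DCN1 PONY domain, measured 1, 5 and 24 h after compound addition. The two setups used 5 nM protein/20 nM FAM-probe or 0.31 nM protein/900 nM total probe (100 nM labeled), in TritonX buffer with 200 mM NaCl.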
A general note: Time-resolved FRET reads energy transfer from a long-lived donor to a nearby acceptor.

[4] abbreviates: 24 hr after treatment with compound, read-out: TR FRET IC50 24 hr.
The mark [5] stands for this setting: TR FRET IC50 1 hr (nM), 1 hr after treatment with compound.
[6] abbreviates: read-out: TR FRET IC50 1 hr, 1 hr after treatment with compound.

DCN1 (DCUND1) protein PONY domain, sequence (Q96GG9 60-248): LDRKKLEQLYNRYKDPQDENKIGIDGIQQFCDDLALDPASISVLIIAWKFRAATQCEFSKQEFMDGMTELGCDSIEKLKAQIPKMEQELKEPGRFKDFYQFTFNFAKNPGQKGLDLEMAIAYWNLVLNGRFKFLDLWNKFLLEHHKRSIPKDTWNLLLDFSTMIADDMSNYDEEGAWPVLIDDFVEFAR

The term IC50 denotes the midpoint of a concentration-inhibition curve. Regarding `CCN1C(=O)[C@@H](NC(=O)c2cccc(C(F)(F)F)c2)[C@@H](c2ccc(F)cc2)c2c(CN(C#N)CCCCN(C)C)nn(-c3ccccc3)c21` [Compound I-248, ˜{N}-[(4˜{S},5˜{S})-3-[[cyano-[4-(dimethylamino)butyl]amino]methyl]-7-ethyl-4-(4-fluorophenyl)-6-oxo-1-phenyl-4,5-dihydropyrazolo[3,4-b]pyridine-5-yl]-3-(trifluoromethyl)benzamide], the “Nanostring Ymax obs (%)” value in test [1] was “++ (Nanostring Ymax greater than 50.0 and less than or equal to 100.0)”. The IC50 in test [2] is not above 100 nM; in test [3] (setting [4]) it was not above 200 nM; in test [3] (setting [5]), 200 to 1000 nM.

As a reminder, the EC50 is the midpoint of the concentration-response curve. Low values mean an effect from little substance, high ones a need for much substance. Turning to `CCN1C(=O)[C@@H](NC(=O)c2cccc(C(F)(F)F)c2)[C@@H](c2ccc(F)cc2)c2c(C(=O)N[C@@H](C)C#N)nn(-c3ccccc3)c21` [Compound I-254, (4S,5S)—N—((S)-1-cyanoethyl)-7-ethyl-4-(4-fluorophenyl)-6-oxo-1-phenyl-5-(3-(trifluoromethyl)benzamido)-4,5,6,7-tetrahydro-1H-pyrazolo[3,4-b]pyridine-3-carboxamide], the half-maximal effective concentration (EC50) in test [1] is more than 1000 nM. The “Nanostring Ymax obs (%)” value in test [1] is “++ (Nanostring Ymax greater than 50.0 and less than or equal to 100.0)”. For the same molecule, the IC50 in test [2] is not above 100 nM; in test [3] (setting [4]), not above 200 nM; in test [3] (setting [5]), 200 to 1000 nM.

Take `CCN1C(=O)[C@@H](NC(=O)c2cccc(C(F)(F)F)c2)[C@@H](c2ccc(F)cc2)c2c([C@@H](CCCO)NC#N)nn(-c3ccccc3)c21` [Compound I-399]: in test [1], the 50% effective concentration (EC50) fell in the range of 100 to 1000 nM. Further, the “Nanostring Ymax obs (%)” value in test [1] is “++ (Nanostring Ymax greater than 50.0 and less than or equal to 100.0)”. Further, the 50% inhibitory concentration (IC50) was not above 100 nM in test [2], not above 200 nM in test [3] (setting [4]) and not above 200 nM in test [3] (setting [6]).

For `C=C(CN1CC2(CCO2)C1)C(=O)NCc1nn(-c2ccccc2)c2c1[C@H](c1ccc(F)cc1)[C@H](NC(=O)c1cccc(C(F)(F)F)c1)C(=O)N2CC` [Compound I-407], in test [1], the “Nanostring Ymax obs (%)” value is “+ (Nanostring Ymax greater than or equal to 0.0 and less than or equal to 50.0)”. Further, the IC50 in test [2] is not above 100 nM; in test [3] (setting [4]), not above 200 nM; in test [3] (setting [6]) it was not above 200 nM.

`CCN1C(=O)[C@@H](NC(=O)c2cccc(C(F)(F)F)c2)[C@@H](c2ccc(F)cc2)c2c([C@H](NC#N)C(F)F)nn(-c3ccccc3)c21` [Compound I-411] returned an EC50 in test [1] of 100 to 1000 nM. The “Nanostring Ymax obs (%)” value in test [1] was “++ (Nanostring Ymax greater than 50.0 and less than or equal to 100.0)”. Further, the values for the IC50 in test [2], in test [3] (setting [4]) and in test [3] (setting [6]) were not above 100 nM, not above 200 nM and not above 200 nM, respectively.

In the case of `C=C(CN1CC(O)C1)C(=O)NCc1nn(-c2ccccc2)c2c1[C@H](c1ccc(F)cc1)[C@H](NC(=O)c1cccc(C(F)(F)F)c1)C(=O)N2CC` [Compound I-459], the EC50 in test [1] was not above 100 nM. Further, the “Nanostring Ymax obs (%)” value in test [1] is “++ (Nanostring Ymax greater than 50.0 and less than or equal to 100.0)”. The results for the IC50 in test [2], in test [3] (setting [4]) and in test [3] (setting [6]) were not above 100 nM, not above 200 nM and not above 200 nM, respectively.

In test [1], `C=C(CN(C)CC1COC1)C(=O)NCc1nn(-c2ccccc2)c2c1[C@H](c1ccc(F)cc1)[C@H](NC(=O)c1cccc(C(F)(F)F)c1)C(=O)N2CC` [Compound I-574] had an EC50 not above 100 nM. For the same molecule, the “Nanostring Ymax obs (%)” value in test [1] is “++ (Nanostring Ymax greater than 50.0 and less than or equal to 100.0)”. The IC50 is not above 100 nM in test [2], not above 200 nM in test [3] (setting [4]) and not above 200 nM in test [3] (setting [6]).

For `C=C(CN1CCCC1)C(=O)NCc1nn(-c2ccccc2)c2c1[C@H](c1ccc(F)cc1)[C@H](NC(=O)c1cccc(C(F)(F)F)c1)C(=O)N2CC` [Compound I-612], in test [1], the “Nanostring Ymax obs (%)” value was “++ (Nanostring Ymax greater than 50.0 and less than or equal to 100.0)”. The IC50 was not above 100 nM in test [2], not above 200 nM in test [3] (setting [4]) and not above 200 nM in test [3] (setting [6]).
